Test results published in ChEMBL document CHEMBL3526020, “Significance of peptide transporter 1 in the intestinal permeability of valacyclovir in wild-type and PepT1 knockout mice” (Drug Metab Dispos, 2013).

Legend:
[1] = test system: Plasma; test: Drug level in mouse portal vein plasma treated with valacyclovir at 100 uM by HPLC analysis; assay type: ADME, cell-free
[2] = Cmax in PepT1 knockout mouse treated with 25 nmol/g, po of valacyclovir; assay type: ADME, organism-based; parameters: dose 25 nmol/g, route oral; conditions: in vivo
[3] = Effective permeability of the compound in PepT1 knockout mouse jejunum at 100 uM by HPLC analysis; assay type: ADME, tissue-based; conditions: read-out: Peff
[4] = Chemical stability of the compound; assay type: physicochemical
[5] = Tmax in wild type mouse treated with 25 nmol/g, po of valacyclovir; assay type: ADME, organism-based; conditions: in vivo
[6] = AUC (0 to 180 mins) in PepT1 knockout mouse treated with 25 nmol/g, po of valacyclovir; assay type: ADME, organism-based; parameters: time < 3 hr, dose 25 nmol/g, route oral; conditions: plasma
[7] = Cmax in wild type mouse treated with 25 nmol/g, po of valacyclovir; assay type: ADME, organism-based; parameters: dose 25 nmol/g, route oral; conditions: in vivo
[8] = biological target: T1, PepT1 (SLC15A1) (Mus musculus, UniProt Q9JIP7); test: Effective permeability of the compound assessed as PepT1-mediated drug uptake in wild type mouse jejunum at 100 uM by HPLC analysis; assay type: ADME; conditions: read-out: Peff
T1 sequence (Q9JIP7 whole entry): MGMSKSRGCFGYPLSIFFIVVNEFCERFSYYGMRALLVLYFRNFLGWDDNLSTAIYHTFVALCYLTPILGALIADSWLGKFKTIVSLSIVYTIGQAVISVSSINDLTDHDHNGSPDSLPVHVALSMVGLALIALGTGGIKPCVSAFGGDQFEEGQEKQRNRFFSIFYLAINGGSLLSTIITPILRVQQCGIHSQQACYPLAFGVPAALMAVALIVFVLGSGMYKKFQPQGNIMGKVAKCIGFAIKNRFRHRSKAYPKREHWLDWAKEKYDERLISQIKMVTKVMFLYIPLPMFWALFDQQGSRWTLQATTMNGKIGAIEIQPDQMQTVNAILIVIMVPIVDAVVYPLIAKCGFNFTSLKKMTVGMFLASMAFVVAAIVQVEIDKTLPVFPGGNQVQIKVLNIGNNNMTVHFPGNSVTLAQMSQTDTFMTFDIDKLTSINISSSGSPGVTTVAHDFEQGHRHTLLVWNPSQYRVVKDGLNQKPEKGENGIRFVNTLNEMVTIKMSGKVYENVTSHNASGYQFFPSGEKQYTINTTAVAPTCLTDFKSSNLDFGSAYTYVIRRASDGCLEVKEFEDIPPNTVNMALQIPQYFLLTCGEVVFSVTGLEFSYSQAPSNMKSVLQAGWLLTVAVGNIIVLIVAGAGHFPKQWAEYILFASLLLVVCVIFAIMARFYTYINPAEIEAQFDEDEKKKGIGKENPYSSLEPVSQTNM

[9] = Tmax in PepT1 knockout mouse treated with 25 nmol/g, po of valacyclovir; assay type: ADME, organism-based; conditions: in vivo
[10] = AUC (0 to 180 mins) in wild type mouse treated with 25 nmol/g, po of valacyclovir; assay type: ADME, organism-based; parameters: time < 3 hr, dose 25 nmol/g, route oral; conditions: plasma
[11] = Permeability of the compound in human jejunum; assay type: ADME, tissue-based; conditions: read-out: permeability
[12] = Permeability in mouse jejunum; assay type: ADME, tissue-based; conditions: read-out: permeability
[13] = test system: Jejunum; test: Effective permeability of the compound in PepT1 knockout mouse jejunum at 100 uM by HPLC analysis relative to wild type mouse; assay type: ADME, tissue-based
[14] = test system: Colon; test: Effective permeability of the compound in PepT1 knockout mouse colon at 100 uM by HPLC analysis relative to wild type mouse; assay type: ADME
[15] = test system: Ileum; test: Drug degradation in mouse ileum at 100 uM by chromatographic analysis; assay type: ADME, tissue-based
[16] = (§1) Drug uptake in wild type mouse jejunum at 0.01 to 50 mM by nonlinear Michaelis-Menten equation analysis; assay type: ADME, tissue-based; conditions: mouse, jejunum
[17] = biological target: Jejunum; test: as §1; assay type: ADME, tissue-based
[18] = test system: Duodenum; test: Effective permeability of the compound in PepT1 knockout mouse duodenum at 100 uM by HPLC analysis relative to wild type mouse; assay type: ADME
[19] = test system: Jejunum; test: Drug uptake in wild type mouse jejunum at 100 uM at pH 6.5 by HPLC analysis in presence of organic cation substrate TEA; assay type: ADME, tissue-based; conditions: in vivo, pH 6.5, 100 µM
[20] = biological target: T1, PepT1 (SLC15A1); test: Effective permeability of the compound assessed as PepT1-mediated drug uptake in wild type mouse colon at 100 uM by HPLC analysis; assay type: ADME; conditions: not told, read-out: Peff
[21] = test system: Jejunum; test: Drug uptake in wild type mouse jejunum at 100 uM at pH 6.5 by HPLC analysis in presence of ATB0,+ substrate L-valine; assay type: ADME, tissue-based; conditions: in vivo, pH 6.5, 100 µM
[22] = biological target: T1, PepT1 (SLC15A1); test: Effective permeability of the compound assessed as PepT1-mediated drug uptake in wild type mouse ileum at 100 uM by HPLC analysis; assay type: ADME, tissue-based; conditions: read-out: Peff
[23] = test system: Jejunum; test: Drug uptake in wild type mouse jejunum at 100 uM at pH 6.5 by HPLC analysis in presence of PepT1 substrate cefadroxil; assay type: ADME, tissue-based; conditions: in vivo, pH 6.5, 100 µM
[24] = test system: Colon; test: Drug degradation in mouse colon at 100 uM by chromatographic analysis; assay type: ADME, tissue-based
[25] = test system: Plasma; test: Prodrug activation in mouse portal vein plasma assessed as formation of acyclovir at 100 uM by HPLC analysis; assay type: cell-free
[26] = test system: Duodenum; test: Drug degradation in mouse duodenum at 100 uM by chromatographic analysis; assay type: ADME, tissue-based
[27] = Drug uptake in human Caco2 cells; assay type: ADME, cell-based; conditions: Caco-2 cells
[28] = test system: Ileum; test: Effective permeability of the compound in PepT1 knockout mouse ileum at 100 uM by HPLC analysis relative to wild type mouse; assay type: ADME, tissue-based
[29] = test system: Jejunum; test: Drug degradation in mouse jejunum at 100 uM by chromatographic analysis; assay type: ADME, tissue-based
[30] = test system: Jejunum; test: Drug uptake in wild type mouse jejunum at 100 uM at pH 6.5 by HPLC analysis in presence of PhT1/2 substrate L-histidine; assay type: ADME, tissue-based; conditions: in vivo, pH 6.5, 100 µM
[31] = biological target: T1, PepT1 (SLC15A1); test: Effective permeability of the compound assessed as PepT1-mediated drug uptake in wild type mouse duodenum at 100 uM by HPLC analysis; assay type: ADME; conditions: read-out: Peff
[32] = test system: Jejunum; test: Drug uptake in wild type mouse jejunum at 100 uM at pH 6.5 by HPLC analysis in presence of PepT1 substrate GlySar; assay type: ADME, tissue-based; conditions: in vivo, pH 6.5, 100 µM
[33] = test system: Jejunum; test: Drug uptake in wild type mouse jejunum at 100 uM at pH 6.5 by HPLC analysis in presence of organic anion substrate PAH; assay type: ADME, tissue-based; conditions: in vivo, pH 6.5, 100 µM
[34] = Drug uptake in rat jejunum; assay type: ADME, tissue-based
[35] = substrate: CC(C)[C@H](N)C(=O)OCCOCn1cnc2c(=O)[nH]c(N)nc21; test: Permeability of the compound assessed as human PepT1-mediated drug uptake in Xenopus oocytes; assay type: ADME, cell-based
[36] = substrate: CC(C)[C@H](N)C(=O)OCCOCn1cnc2c(=O)[nH]c(N)nc21; test: Permeability of the compound assessed as human PepT1-mediated drug uptake in CHO cells at pH 7.9; assay type: ADME, cell-based
[37] = substrate: CC(C)[C@H](N)C(=O)OCCOCn1cnc2c(=O)[nH]c(N)nc21; test: Permeability of the compound assessed as human PepT1-mediated drug uptake in MDCK cells; assay type: ADME, cell-based
[38] = substrate: CC(C)[C@H](N)C(=O)OCCOCn1cnc2c(=O)[nH]c(N)nc21; test: Permeability of the compound assessed as human PepT1-mediated drug uptake in CHO cells at pH 5.5; assay type: ADME, cell-based

Nc1nc2c(ncn2COCCO)c(=O)[nH]1 [ACYCLOVIR]
Drug metabolism [1]: metabolite_detected
Cmax [2]: 2 µM
Papp at 100 µM [3]: 7.4 ×10⁻⁶ cm/s
Stability [4]: < 5%
Tmax [5]: 25 min
AUC(0-t) at 3 h [6]: 5.02 µM·h
Cmax [7]: 9.3 µM
Papp at 100 µM [8]: 4 ×10⁻⁶ cm/s
Tmax [9]: 70 min
AUC(0-t) at 3 h [10]: 12.3 µM·h

COCCc1ccc(OCC(O)CNC(C)C)cc1 (stereo not drawn) [METOPROLOL]
Papp [11]: 134 ×10⁻⁶ cm/s
Papp [12]: 50 ×10⁻⁶ cm/s

CC(C)[C@H](N)C(=O)OCCOCn1cnc2c(=O)nc(N)[nH]c21.Cl [VALACYCLOVIR HYDROCHLORIDE]
Peff [13]: < 10%
Peff [14]: < 10%
Stability [15]: Unstable
Km at up to 50000 µM [16]: 10.2 mM
Kd [17]: 3 ×10⁻⁵ cm/s
Drug uptake ([17]; mouse, in vivo, 50000 µM): 82%
Vmax ([17]; mouse, in vivo, 50000 µM): 1.4 nmol/cm2/s
Peff [18]: < 10%
Drug uptake [19]: Active
Papp at 100 µM [20]: 27 ×10⁻⁶ cm/s
Stability [4]: < 5%
Drug uptake [21]: Active
Papp at 100 µM [22]: 210 ×10⁻⁶ cm/s
Drug uptake [23]: Not Active
Stability [24]: Unstable
Papp [11]: 166 ×10⁻⁶ cm/s
Drug metabolism [25]: metabolite_detected
Stability [26]: Unstable
Km [27]: 1.6 mM
Peff [28]: < 10%
Stability [29]: Unstable
Drug uptake [30]: Active
Papp at 100 µM [8]: 170 ×10⁻⁶ cm/s
Papp at 100 µM [31]: 240 ×10⁻⁶ cm/s
Drug uptake [32]: Not Active
Drug uptake [33]: Active
Km [34]: 1.2 mM

B1: Solute carrier family 15 member 1 (Homo sapiens) (protein)
chain: MGMSKSHSFFGYPLSIFFIVVNEFCERFSYYGMRAILILYFTNFISWDDNLSTAIYHTFVALCYLTPILGALIADSWLGKFKTIVSLSIVYTIGQAVTSVSSINDLTDHNHDGTPDSLPVHVVLSLIGLALIALGTGGIKPCVSAFGGDQFEEGQEKQRNRFFSIFYLAINAGSLLSTIITPMLRVQQCGIHSKQACYPLAFGVPAALMAVALIVFVLGSGMYKKFKPQGNIMGKVAKCIGFAIKNRFRHRSKAFPKREHWLDWAKEKYDERLISQIKMVTRVMFLYIPLPMFWALFDQQGSRWTLQATTMSGKIGALEIQPDQMQTVNAILIVIMVPIFDAVLYPLIAKCGFNFTSLKKMAVGMVLASMAFVVAAIVQVEIDKTLPVFPKGNEVQIKVLNIGNNTMNISLPGEMVTLGPMSQTNAFMTFDVNKLTRINISSPGSPVTAVTDDFKQGQRHTLLVWAPNHYQVVKDGLNQKPEKGENGIRFVNTFNELITITMSGKVYANISSYNASTYQFFPSGIKGFTISSTEIPPQCQPNFNTFYLEFGSAYTYIVQRKNDSCPEVKVFEDISANTVNMALQIPQYFLLTCGEVVFSVTGLEFSYSQAPSNMKSVLQAGWLLTVAVGNIIVLIVAGAGQFSKQWAEYILFAALLLVVCVIFAIMARFYTYINPAEIEAQFDEDEKKNRLEKSNPYFMSGANSQKQM
Km [35]: 5.9 mM
Km [36]: 2.2 mM
Km [37]: 3.8 mM
Km [38]: 7.4 mM
